In PubChem BioAssay AID328 (DTP/NCI, 2004) one finds T/C data, which are given here for 15 compounds.

The structures appear in SMILES notation. Where “and” joins values, the source holds several entries; their conditions need not be identical. Equal values may be shown once. Toxic doses and inconclusive results are not listed.

The test concerns BDF1 mice, P388 leukemia ip, median survival T/C. The test can be described thus: NCI In Vivo Anticancer Drug Screen. Data for tumor model P388 Leukemia (intraperitoneal) in B6D2F1 (BDF1) mice. Conditions: endpoint: median survival time, higher = longer survival. Put shortly: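 In tumour-bearing mice, survival after compound treatment is set against the vehicle group and given as a quotient.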

Setting [1] is: dose: 50.0 mg/kg/injection, schedule: Q04DX003 (ip), vehicle: Klucel (hydroxypropylcellulose) (HPC).
[2] abbreviates: dose: 100.0 mg/kg/injection, schedule: Q04DX003 (ip), vehicle: Klucel (hydroxypropylcellulose) (HPC).
The mark [3] stands for this setting: dose: 50.0 mg/kg/injection, schedule: Q01DX009 (ip), vehicle: Klucel (hydroxypropylcellulose) (HPC).
The mark [4] stands for this setting: dose: 100.0 mg/kg/injection, schedule: Q01DX009 (ip), vehicle: Klucel (hydroxypropylcellulose) (HPC).
Where [5] appears, read: dose: 200.0 mg/kg/injection, schedule: Q01DX009 (ip), vehicle: Klucel (hydroxypropylcellulose) (HPC).
Where [6] appears, read: dose: 50.0 mg/kg/injection, schedule: Q01DX009 (ip), vehicle: saline with Tween-80.
Setting [7] is: dose: 100.0 mg/kg/injection, schedule: Q01DX009 (ip), vehicle: saline with Tween-80.
Setting [8] is: dose: 200.0 mg/kg/injection, schedule: Q01DX009 (ip), vehicle: saline with Tween-80.

As to `COC(=O)C(CCC(=O)O)NC(=O)OCc1ccccc1` (stereo not given), the T/C by setting is: (dose: 25.0 mg/kg/injection, schedule: Q04DX003 (ip), vehicle: Klucel (hydroxypropylcellulose) (HPC)) 104 % of control; under setting [1], 113 % of control; under setting [2], 95 % of control and 109 % of control.

As to `CSN1C(=O)CCC1=O`, the T/C was 107 % of control (dose: 50.0 mg/kg/injection, schedule: Q04DX002 (ip), vehicle: saline); 100 % of control (dose: 100.0 mg/kg/injection, schedule: Q04DX002 (ip), vehicle: saline); 109 % of control (dose: 200.0 mg/kg/injection, schedule: Q04DX002 (ip), vehicle: saline).

Turning to `Cc1ccc(S(=O)(=O)NCC(C)C)cc1`, the T/C under setting [3] is 94 % of control; the T/C under setting [4] is 86 % of control; the T/C under setting [5] is 104 % of control; the T/C (dose: 400.0 mg/kg/injection, schedule: Q01DX009 (ip), vehicle: Klucel (hydroxypropylcellulose) (HPC)) is 102 % of control.

With `O=C1C(NCC(O)CO)=C(N2CC2)C(=O)C(NCC(O)CO)=C1N1CC1` (stereo not given), the T/C is, setting by setting: (dose: 0.5 mg/kg/injection, schedule: Q01DX009 (ip), vehicle: saline) 98 % of control; (dose: 1.5 mg/kg/injection, schedule: Q01DX009 (ip), vehicle: saline) 233 % of control; (dose: 2.0 mg/kg/injection, schedule: Q01DX009 (ip), vehicle: saline) 116 % of control and 213 % of control; (dose: 4.0 mg/kg/injection, schedule: Q01DX009 (ip), vehicle: saline) 241 % of control and 243 % of control; (dose: 6.0 mg/kg/injection, schedule: Q01DX009 (ip), vehicle: saline) 107 % of control.

On to `O=C(/C=C/c1ccc(OCc2ccccc2)cc1)c1ccccc1F`, for which the T/C runs as follows: under setting [6], 96 % of control; under setting [7], 100 % of control; under setting [8], 96 % of control.

For the compound `CCCCCCCCN(N)C12CC3CC(CC(C3)C1)C2`, the T/C was 116 % of control (dose: 12.5 mg/kg/injection, schedule: Q01DX009 (ip), vehicle: saline); 90 % of control (dose: 12.5 mg/kg/injection, schedule: Q04DX003 (ip), vehicle: saline); 119 % of control (dose: 25.0 mg/kg/injection, schedule: Q01DX009 (ip), vehicle: saline); 100 % of control (dose: 25.0 mg/kg/injection, schedule: Q04DX003 (ip), vehicle: saline); 94 % of control (dose: 50.0 mg/kg/injection, schedule: Q04DX003 (ip), vehicle: saline); 100 % of control (dose: 100.0 mg/kg/injection, schedule: Q04DX003 (ip), vehicle: saline).

As for `Cc1c(N)nc(=S)[nH]c1C(=O)O`, the T/C is 113 % of control under setting [1]; 109 % of control (dose: 100.0 mg/kg/injection, schedule: Q01DX001 (ip), vehicle: Klucel (hydroxypropylcellulose) (HPC)); 100 % of control under setting [2]; 109 % of control (dose: 200.0 mg/kg/injection, schedule: Q01DX001 (ip), vehicle: Klucel (hydroxypropylcellulose) (HPC)); 100 % of control (dose: 200.0 mg/kg/injection, schedule: Q04DX003 (ip), vehicle: Klucel (hydroxypropylcellulose) (HPC)); 104 % of control (dose: 400.0 mg/kg/injection, schedule: Q01DX001 (ip), vehicle: Klucel (hydroxypropylcellulose) (HPC)).

As to `O=C(/C=C/c1ccccc1Cl)NCC(O)CO` (stereo not given), the T/C runs as follows: under setting [6], 100 % of control; under setting [7], 100 % of control; under setting [8], 95 % of control; (dose: 400.0 mg/kg/injection, schedule: Q01DX009 (ip), vehicle: other) 91 % of control; (dose: 400.0 mg/kg/injection, schedule: Q01DX009 (ip), vehicle: saline with Tween-80) 90 % of control.

As to `CS(=O)(=O)OCCCNCCCOS(C)(=O)=O`, the T/C is, setting by setting: (dose: 10.0 mg/kg/injection, schedule: Q01DX009 (ip), vehicle: saline) 228 % of control; (dose: 10.0 mg/kg/injection, schedule: Q01DX010 (ip), vehicle: saline) 255 % of control; (dose: 12.0 mg/kg/injection, schedule: Q04DX003 (ip), vehicle: saline) 186 % of control; (dose: 19.0 mg/kg/injection, schedule: Q04DX003 (ip), vehicle: saline) 204 % of control; (dose: 20.0 mg/kg/injection, schedule: Q01DX009 (ip), vehicle: saline) 255 % of control; (dose: 20.0 mg/kg/injection, schedule: Q01DX010 (ip), vehicle: saline) 300 % of control. Also, the T/C is, setting by setting: (dose: 29.0 mg/kg/injection, schedule: Q04DX003 (ip), vehicle: saline) 209 % of control; (dose: 40.0 mg/kg/injection, schedule: Q01DX009 (ip), vehicle: saline) 282 % of control; (dose: 40.0 mg/kg/injection, schedule: Q01DX010 (ip), vehicle: saline) 300 % of control; (dose: 45.0 mg/kg/injection, schedule: Q04DX003 (ip), vehicle: saline) 240 % of control; (dose: 66.0 mg/kg/injection, schedule: Q04DX003 (ip), vehicle: saline) 245 % of control; (dose: 80.0 mg/kg/injection, schedule: Q01DX010 (ip), vehicle: saline) 94 % of control. Also, the T/C (dose: 150.0 mg/kg/injection, schedule: Q04DX003 (ip), vehicle: saline) was 300 % of control.

On to `COc1cc2c(c3oc(=O)ccc13)C(=O)CC(C)(C)O2`, for which the T/C was 108 % of control (dose: 50.0 mg/kg/injection, schedule: Q01DX001 (ip), vehicle: saline); 100 % of control (dose: 100.0 mg/kg/injection, schedule: Q01DX001 (ip), vehicle: saline); 104 % of control (dose: 200.0 mg/kg/injection, schedule: Q01DX001 (ip), vehicle: saline).

On to `CCn1nnc2c(N(C)C)nc(N)nc21`, for which the T/C is, setting by setting: (dose: 25.0 mg/kg/injection, schedule: Q01DX009 (ip), vehicle: Klucel (hydroxypropylcellulose) (HPC)) 92 % of control; under setting [3], 92 % of control; under setting [1], 100 % of control; under setting [4], 92 % of control; under setting [2], 104 % of control.

For `O=c1cc(-c2cccnc2)oc2c1ccc1ccccc12`, the T/C is 89 % of control (dose: 12.5 mg/kg/injection, schedule: Q01DX009 (ip), vehicle: other); 91 % of control (dose: 25.0 mg/kg/injection, schedule: Q01DX009 (ip), vehicle: other); 95 % of control (dose: 50.0 mg/kg/injection, schedule: Q01DX009 (ip), vehicle: other); 91 % of control (dose: 100.0 mg/kg/injection, schedule: Q01DX009 (ip), vehicle: other); 87 % of control (dose: 200.0 mg/kg/injection, schedule: Q01DX009 (ip), vehicle: other).

For `Cc1ccc(N2CC(=O)N3CCCC(c4ccccc4)N3C(=O)C2)cc1` (stereo not given), the T/C (dose: 50.0 mg/kg/injection, schedule: Q01DX005 (ip), vehicle: saline with Tween-80) was 97 % of control; the T/C (dose: 100.0 mg/kg/injection, schedule: Q01DX005 (ip), vehicle: saline with Tween-80) is 94 % of control; the T/C (dose: 200.0 mg/kg/injection, schedule: Q01DX005 (ip), vehicle: saline with Tween-80) was 94 % of control.

As to `C[Si](C)(C)C1CO1` (stereo not given), the T/C is, setting by setting: under setting [6], 106 % of control; under setting [7], 106 % of control; under setting [8], 102 % of control.

As to `C=C1C(c2ccccc2)C(c2ccccc2)=C(C)C(c2ccccc2)=CN1C(=O)c1ccccc1` (stereo not given), the T/C is 97 % of control under setting [3], 88 % of control under setting [4] and 95 % of control under setting [5].
